Test results reported in patent US20240122926A1, “APELIN RECEPTOR MODULATORS FOR TREATING MUSCLE CONDITIONS” (priority 2022, published 2024).
“Also recorded” adds a separate entry of the source.

Assays:
[1] = test system: healthy volunteers aged ≥65 years; test: Phase 1b bed rest study Part B (MD), limb circumference and ultrasound muscle dimensions; assay type: in vivo, human
Protocol: In each of the 3 cohorts in Part B, 30 total subjects are enrolled to receive treatment in either Cohort 1A, Cohort 1B, or Cohort 1C. Cohort 1A includes 10 subjects who all receive placebo NS over a 1 hour infusion for 10 days on Days 1 through Day 10. […] Patients are at bed rest for the entire 10-day duration of treatment.
Ultrasound images were collected during the following study visits: Day −1 (baseline), Day 6 (pre-dose), and day 11 (end of treatment). Ultrasounds were performed of both the vastus lateralis and gastroenemius to measure cross-sectional area, color flow doppler, antero-posterior (AP) diameter, and echo density. Muscle circumference was also measured. Ultrasound imaging was conducted by the same operator throughout the study for all subjects. Ultrasound readings were done by the same reader throughout the study for all subjects. […] The leg measured (right vs. left) and leg location (medial vs. lateral) remained consistent for all ultrasounds.
Muscle circumference was measured in centimeters (cm) using a measuring tape and recorded on the ultrasound worksheet at the time of imaging.
The ultrasound images were collected before conducting the skeletal muscle micro-biopsy. Prior to testing, subjects were instructed to wear shorts on testing day to avoid compression of the upper leg musculature and to expose the upper portion of the thigh. Subjects were required to lay supine on an examination table with both legs fully extended for a minimum of 5 minutes to allow for fluid shifts to occur. Each subject was instructed to lay on their non-dominant side to obtain skeletal muscle ultrasound images of the vastus lateralis and gastrocnemius in the dominant leg. Subjects were positioned with their legs on top of one another and slightly bent at the knee. Ultrasound images of the vastus lateralis will be captured at 50% of the straight-line distance from the greater trochanter and the lateral epicondyle of the femur.
To ensure proper probe placement and consistent image capture location, a dotted line was drawn transversely and longitudinally along the surface of the skin from the aforementioned location. All measures of muscle morphology were obtained using a B-mode, 12-MHz linear probe US (General Electric vivid E9) to provide acoustic contact without depressing the dermal layer of the skin. Longitudinal B-mode and transverse field of view (FOV) images were acquired during each exam and analyzed. Ultrasound settings remained fixed for examination of each subject: image gain was set at 50 decibels (dB), dynamic range was set at 72, and image depth was set at 5 cm. Three panoramic transverse images (PTI) were captured in the transverse plane, perpendicular to the long axis of the muscle. These images utilized the extended-field-of-view ultrasonography in order to include entire area of the vastus lateralis in a single panoramic image.
Additionally, three single longitudinal images (SLI) were captured in the longitudinal plane, parallel to the long axis of the muscle. […] This same technique was applied to ultrasound of the gastrocnemius. Either the medial head or lateral head of the gastrocnemius was used for ultrasound evaluation, but not both. The same head was used for all gastrocnemius ultrasounds throughout the study.
(§1) One day before (baseline, D-1) and 5 (D5) and 10 (D10) days after initiation of bed rest, key muscle atrophy endpoints were measured: thigh circumference; cross-sectional area (CSA) and A-P diameter of vastus lateralis (ultrasound); ultrasound muscle quality grade, an index that quantifies fatty degeneration in muscle (ultrasound echo density); and muscle protein synthesis rate (biopsy). Parameters measured during the 10-day bed rest period include thigh circumference, muscle size, muscle quality (e.g., fatty degeneration), and muscle protein synthetic rate.

[2] = test system: serum proteome; test: Phase 1b bed rest study, serum proteomic profiling; assay type: in vivo, human
Protocol: Proteomic profiling and analysis were performed on serum collected from the phase 1B clinical trial subjects (treated vs placebo) as described above. Eleven (11) treated and 10 placebo subject's serum levels were profiled for their proteomics collected at day −1 (baseline), day 5 and day 11. A linear regression model was implemented with an interaction term between treatment group and day to identify proteins whose differential abundance between the treatment groups influenced the average rate of change per day of a given protein. This model was fit separately for all proteins measured, and the resulting coefficient (on the interaction term) for each protein was used to rank order all proteins from most positive to most negative coefficient.
For each human aging cohort phenotype (various physical function phenotypes and mortality), two protein sets consisting respectively (to preserve directionality) of the proteins positively and negatively associated (p<0.05) with that phenotype. Significant phenotypes in the right-hand graph of FIG. 48 and FIG. 49 with their GSEA plots and p-values (significant phenotypes were not shown when their protein sets overlapped substantially with those of already shown phenotypes).

[3] = test system: healthy volunteers aged ≥65 years; test: Phase 1b bed rest study, safety (TEAEs); assay type: in vivo
Protocol: Adverse events are coded using the Medical Dictionary for Regulatory Activities. The number of events, incidence, and percentage of TEAEs are calculated overall by system organ class, preferred term, and treatment group for each cohort and treatment group. The number and percentage of subjects with TEAEs are further summarized by severity and relationship to study drug. AEs related to study drug, AEs leading to withdrawal, SAEs, and deaths are also similarly summarized and/or listed in a similar manner.

[4] = test system: Twenty-month-old male C57/Bl6 mice; test: Hindlimb immobilization (casting, 21 days) disuse atrophy in aged mice, muscle wet weight; assay type: in vivo, mouse; settings: 50 mg/kg BID P.O.; 21 days immobilization (placebo group 25%)
Description: Limb immobilization causes a loss of gross skeletal muscle mass accompanied by a significant decrease in apelin transcript levels.
One week into the treatment, mice underwent modified hindlimb casting on one limb. Mice were anesthetized with isoflurane inhalation and the hindlimb wiped with povidone-iodine, then ethanol, and loosely wrapped in surgical gauze. A custom-made plastic immobilization device was placed on the limb, with the foot in full extension, so as to result in the maximal in vivo unloading of the plantarflexor group. The device was fixed to the hindlimb using Vetbond and the animal returned to its cage. After 3 weeks of treatment following casting, mice were euthanized 1 hour after the final ZT1 dose, and tissues isolated, weighed, then flash frozen in liquid nitrogen for subsequent western blot analysis.

[5] = test system: healthy volunteers aged ≥65 years; test: Phase 1b bed rest study, muscle protein synthesis rate (heavy water, vastus lateralis microbiopsy); assay type: in vivo, human
Protocol: Heavy Water Consumption and Assessments. For subjects in Part B only, heavy water, deuterated H2O (D2O), is provided to subjects to drink during the pre-treatment and treatment periods before breakfast, in the afternoon, and after fasting overnight, at timepoints described previously. Blood samples (10 mL) and urine samples are collected at timepoints described previously to assess skeletal muscle protein fractional synthetic rate (FSR).
Skeletal muscle protein synthesis rate (%/time) for individual muscle proteins are compared first as a linear contrast including all doses versus placebo and then as individual dose comparisons to placebo.
as §1

[6] = 240 mg IV once daily, 10 days bed rest

`COc1cccc(OC)c1-n1c(NS(=O)(=O)[C@@H](C)[C@H](C)c2ncc(C)cn2)nnc1-c1cncc(C)c1` [BGE-105, (2S,3R)—N-(4-(2,6-dimethoxyphenyl)-5-(5-methyl-3-pyridinyl)-4H-1,2,4-triazol-3-yl)-3-(5-methyl-2-pyrimidinyl)-2-butanesulfonamide] was tested, and the “reduction in loss of vastus lateralis cross-sectional area vs placebo” value [1, 6] was over 50%, the “reduction in loss of vastus lateralis muscle thickness vs placebo” value [1, 6] was 75% and the “decrease in gastrocnemius diameter, mean percent change from baseline” value ([1]; 10 days of bed rest (placebo 10.982%)) was 2.942. The “decrease in gastrocnemius cross-sectional area, mean percent change from baseline” value ([1]; 10 days of bed rest (placebo 15.72%)) was 7.758%, the “improvement in muscle dimension vs placebo” value ([1]; Cohort 1B vs Cohort 1A) was about 75% and the “decrease in calf circumference” value ([1]; female subjects (placebo 5.486%)) was 1.166%. The “decrease in thigh circumference” value ([1]; female subjects (placebo 6.06%)) was 1.674%, the “decrease in gastrocnemius cross sectional area” value ([1]; female subjects (placebo 15.32%)) was 5.558% and the “decrease in vastus lateralis cross sectional area” value ([1]; female subjects (placebo 23.67%)) was 9.676%. The “reduction in muscle loss from disuse atrophy” value ([1]; healthy volunteer bed rest study) was “up to 75%”, the “increase in thigh circumference after 10-day bed rest” value ([1]; older patients, BGE-105 treated group (placebo 6.438% reduction)) was 0.8% and the “number of subjects (out of 11) with fully preserved or increased thigh circumference” value ([1]; over 10 days of bed rest) was 7. The “percent of subjects with fully preserved or increased thigh circumference” value ([1]; over 10 days of bed rest) was 64%, the “decrease in muscle size measured by ultrasound” value ([1]; treatment group (Cohort 1B) (placebo 21%)) was 5.664% and the “number of proteins associated with grip strength (out of 379) changed by treatment” value [2] was 58. For the same molecule, the “number of proteins associated with walk speed (out of 526) changed by treatment” value [2] was 35, the “number of proteins associated with frailty (out of 992) changed by treatment” value ([2]; p<0.05) was 69 and the “number of volunteers (out of 11) exhibiting TEAEs” value ([3]; Cohort 1B) was 7. The “percent of volunteers exhibiting TEAEs” value ([3]; Cohort 1B) was 64%, the “serious / severe adverse effects” value ([3]; Phase 1b bed rest study) was “no serious adverse effects; also recorded: no severe adverse effects” and the tolerability ([3]; Phase 1b bed rest study) was “well tolerated”. For the same molecule, the “decrease of wet weight of tibialis anterior (TA) muscle in casted limb” value [4] was 3%, the “mean normalized fraction synthetic rate, range” value ([5]; BGE-105 treated patients with elevated rate, 10 days bed rest) was 0.18-2.2 and the “number of patients (out of 11) with elevated rate of muscle protein synthesis” value ([5]; after 10 days of bed rest) was 8. The “decrease in the synthetic rate of muscle myofibril proteins (FSR/day) from baseline” value ([5]; vastus lateralis (placebo 58%)) was 36%.
